pIC50: −log10 of the molar value.

This test has as its target T1, CDK2 (Homo sapiens, UniProt P24941).
T1 construct: High-Throughput Measurement of Cellular Endogenous CDK2; endogenous in cells; host or cells: OVCAR3
The experiment in a line: Inhibition of CDK2: phospho-Rb (S807/811) HTRF measurement in OVCAR3 cells, 24 h. The test is classed as cell-based. The following applies: 24 h compound treatment, read-out: pRB_OVCAR3_24h. As to the method: Inhibition of CDK2: Phospho-R^b Measurement in Cells
Phosphorylation of RB protein at S807/811 were measured using HTRF phospho-RB cellular kits (Cat #64RBS807PEG) from Cisbio.
On Day 1, OVCAR3 (CDK2 dependent cell line) cells were seeded into 96-well tissue-culture treated plates at 20,000 cells/well in 200 μL and incubated overnight at 37° C. in CO2 atmosphere. On Day 2, the cells were treated with test compounds at concentrations from 0.3 to 10,000 nM using HP D300 digital dispenser. Twenty-four hours after compound treatment, cell culture media is removed by flicking the plate and tapping the plate against clean paper towel. 30 μL 1× lysis buffer was supplemented from the kit was added to each well and the plate was incubated at room temperature on shaker for 30 min. After homogenization by pipetting up and down, 8 μL cell lysate from 96-well cell culture plate was transferred to 384-well small volume white detection plate. 2 μL premixed detection solution was added and the plate was covered with sealer. To prepare the detection solution, d2 conjugated-phospho-RB antibody and Eu-cryptate conjugated phosphor-RB antibody were diluted into detection buffer following manufacturer's instruction. Detection plates were incubated for 4 h at room temperature and read on ClarioStar (BMG Labtech) in TR-FRET mode (665 nM and 620 nM). The TR-FRET ratio (665 nM/620 nM) was plotted against the compound concentration and normalized to DMSO controls. Half maximal inhibition concentration (IC50) values were calculated with a four-parameter logistic fit using GraphPad Prism (version 8; La Jolla, CA).
Regarding `O=C1CCC(N2C(=O)c3cc(F)c(N4CCN(CC5CCN(c6cccc(S(=O)(=O)N7CCC(Nc8ncc(C(F)(F)F)cn8)CC7)c6)CC5)CC4)cc3C2=O)C(=O)N1` (stereo not shown) [Example 80, 2-(2,6-dioxopiperidin-3-yl)-5-fluoro-6-(4-((1-(3-((4-((5-(trifluoromethyl)pyrimidin-2-yl)amino)piperidin-1-yl)sulfonyl)phenyl)-piperidin-4-yl)methyl)piperazin-1-yl)isoindoline-1,3-dione], the pIC50 is 6.30 to 7.00.

With `Cn1nc(N2CCC(=O)NC2=O)c2ccc(C3CN(Cc4cccc(S(=O)(=O)N5CCC(Nc6ncc(OC(F)F)cn6)CC5)c4)C3)cc21` [Example 81, 1-(6-(1-(3-((4-((5-(difluoromethoxy)-pyrimidin-2-yl)amino)piperidin-1-yl)sulfonyl)benzyl)azetidin-3-yl)-1-methyl-1H-indazol-3-yl)dihydropyrimidine-2,4(1H,3H)-dione], the pIC50 was 5.60 to 6.30.

In the case of `O=C1CCN(c2ccc(N3CCN(Cc4cccc(S(=O)(=O)N5CCC(Nc6ncc(C(F)(F)F)cn6)CC5)c4)CC3)cc2)C(=O)N1` [Example 82, 1-(4-(4-(3-((4-((5-(trifluoromethyl)-pyrimidin-2-yl)amino)piperidin-1-yl)sulfonyl)benzyl)piperazin-1-yl)phenyl) dihydropyrimidine-2,4(1H,3H)-dione], the pIC50 is 5.60 to 6.30.

As for `Cn1nc(N2CCC(=O)NC2=O)c2ccc(N3CCC(NCc4cccc(S(=O)(=O)N5CCC(Nc6ncc(Cl)cn6)CC5)c4)CC3)cc21` [Example 84, 1-(6-(4-((3-((4-((5-chloropyrimidin-2-yl)amino)piperidin-1-yl)sulfonyl)benzyl)-amino)piperidin-1-yl)-1-methyl-1H-indazol-3-yl)dihydropyrimidine-2,4(1H,3H)-dione], the pIC50 is less than 5.60.

Consider `Cn1nc(N2CCC(=O)NC2=O)c2ccc(N3CCC(NCc4cccc(S(=O)(=O)N5CCC(Nc6ncc(C(F)(F)F)cn6)CC5)c4)CC3)cc21` [Example 85, 1-(1-methyl-6-(4-((3-((4-((5-(trifluoro-methyl)pyrimidin-2-yl)amino)piperidin-1-yl)sulfonyl)benzyl)amino)piperidin-1-yl)-1H-indazol-3-yl)dihydropyrimidine-2,4(1H,3H)-dione], for which the pIC50 is 5.60 to 6.30.

For the compound `CN(Cc1cccc(S(=O)(=O)N2CCC(Nc3ncc(C(F)(F)F)cn3)CC2)c1)CC1CCN(c2ccc3c(N4CCC(=O)NC4=O)nn(C)c3c2)CC1` [Example 88, 1-(1-methyl-6-(4-((methyl(3-((4-((5-(trifluoromethyl)pyrimidin-2-yl)amino)-piperidin-1-yl)sulfonyl)benzyl)amino)-methyl)piperidin-1-yl)-1H-indazol-3-yl)dihydropyrimidine-2,4(1H,3H)-dione], the pIC50 was 5.60 to 6.30.

Turning to `Cn1nc(N2CCC(=O)NC2=O)c2ccc(C3CCN(CC4CCN(c5cccc(S(=O)(=O)N6CCC(Nc7ncc(C(F)(F)F)cn7)CC6)c5)CC4)CC3(F)F)cc21` (stereo not shown) [Example 90, 1-(6-(3,3-difluoro-1-((1-(3-((4-((5-(trifluoromethyl)pyrimidin-2-yl)amino)-piperidin-1-yl)sulfonyl)phenyl)piperidin-4-yl)methyl)piperidin-4-yl)-1-methyl-1H-indazol-3-yl)dihydropyrimidine-2,4(1H,3H)-dione], the pIC50 is 6.30 to 7.00.

For the compound `CC(Cc1cccc(S(=O)(=O)N2CCC(Nc3ncc(C(F)(F)F)cn3)CC2)c1)CN1CCN(c2cc3c(cc2F)C(=O)N(C2CCC(=O)NC2=O)C3)CC1` (stereo not shown) [Example 96, 3-(6-fluoro-5-(4-(2-methyl-3-(3-((4-((5-(trifluoromethyl)pyrimidin-2-yl)amino)-piperidin-1-yl)sulfonyl)phenyl)propyl)-piperazin-1-yl)-1-oxoisoindolin-2-yl)piperidine-2,6-dione], the pIC50 is 6.30 to 7.00.

In the case of `CC(Cc1cccc(S(=O)(=O)N2CCC(Nc3ncc(Cl)cn3)CC2)c1)CN1CCN(c2cc3c(cc2F)C(=O)N(C2CCC(=O)NC2=O)C3)CC1` (stereo not shown) [Example 97, 3-(5-(4-(3-(3-((4-((5-chloropyrimidin-2-yl)amino)piperidin-1-yl)sulfonyl)phenyl)-2-methylpropyl)piperazin-1-yl)-6-fluoro-1-oxoisoindolin-2-yl)piperidine-2,6-dione], the pIC50 is 5.60 to 6.30.

For the compound `O=C1CCC(N2Cc3cc(N4CCN(CC5CCN(c6cccc(S(=O)(=O)N7CCC(Nc8ncc(Cl)cn8)CC7)c6)CC5)CC4)ccc3C2=O)C(=O)N1` (stereo not shown) [Example 98, 3-(5-(4-((1-(3-((4-((5-chloropyrimidin-2-yl)amino)piperidin-1-yl)sulfonyl)phenyl)-piperidin-4-yl)methyl)piperazin-1-yl)-1-oxoisoindolin-2-yl)piperidine-2,6-dione], the pIC50 was 6.30 to 7.00.

Take `O=C1CCC(N2Cc3cc(N4CCN(CC5CCN(c6cccc(S(=O)(=O)N7CCC(Nc8ncc(C(F)(F)F)cn8)CC7)c6)CC5)CC4)c(F)cc3C2=O)C(=O)N1` (stereo not shown) [Example 101, 3-(6-fluoro-1-oxo-5-(4-((1-(3-((4-((5-(trifluoromethyl)pyrimidin-2-yl)amino)-piperidin-1-yl)sulfonyl)phenyl)piperidin-4-yl)methyl)piperazin-1-yl)isoindolin-2-yl)piperidine-2,6-dione]: the pIC50 is 6.30 to 7.00.

On to `CC(Cc1cccc(S(=O)(=O)N2CCC(Nc3ncc(OC(F)F)cn3)CC2)c1)CN1CCN(c2cc3c(cc2F)C(=O)N(C2CCC(=O)NC2=O)C3)CC1` (stereo not shown) [Example 102, 3-(5-(4-(3-(3-((4-((5-(difluoromethoxy)-pyrimidin-2-yl)amino)piperidin-1-yl)sulfonyl)phenyl)-2-methylpropyl)-piperazin-1-yl)-6-fluoro-1-oxoisoindolin-2-yl)piperidine-2,6-dione], for which the pIC50 is 5.60 to 6.30.

Turning to `O=C1CCC(N2Cc3cc(N4CCN(CC5CCN(c6cccc(S(=O)(=O)N7CCC(Nc8ncc(Cl)cn8)CC7)c6)CC5)CC4)c(F)cc3C2=O)C(=O)N1` (stereo not shown) [Example 103, 3-(5-(4-((1-(3-((4-((5-chloropyrimidin-2-yl)amino)piperidin-1-yl)sulfonyl)phenyl)-piperidin-4-yl)methyl)piperazin-1-yl)-6-fluoro-1-oxoisoindolin-2-yl)piperidine-2,6-dione], the pIC50 is 5.60 to 6.30.

For the compound `Cn1nc(N2CCC(=O)NC2=O)c2ccc(N3C4CCC3CN(CC3CCN(c5cccc(S(=O)(=O)N6CCC(Nc7ncc(Cl)cn7)CC6)c5)CC3)C4)cc21` [Example 104, 1-(6-(3-((1-(3-((4-((5-chloropyrimidin-2-yl)amino)piperidin-1-yl)sulfonyl)phenyl)-piperidin-4-yl)methyl)-3,8-diaza-bicyclo[3.2.1]octan-8-yl)-1-methyl-1H-indazol-3-yl)dihydropyrimidine-2,4(1H,3H)-dione], the pIC50 was less than 5.60.

Turning to `O=C1CCC(N2Cc3cc(N4CCN(CC5CCN(c6cccc(S(=O)(=O)N7CCC(Nc8ncc(OC(F)F)cn8)CC7)c6)CC5)CC4)c(F)cc3C2=O)C(=O)N1` (stereo not shown) [Example 106, 3-(5-(4-((1-(3-((4-((5-(difluoromethoxy)-pyrimidin-2-yl)amino)piperidin-1-yl)sulfonyl)phenyl)piperidin-4-yl)methyl)-piperazin-1-yl)-6-fluoro-1-oxoisoindolin-2-yl)piperidine-2,6-dione], the pIC50 is 6.30 to 7.00.

As to `O=C1CCN(c2ccc(N3CCN(CC4CCN(c5cccc(S(=O)(=O)N6CCC(Nc7ncc(Cl)cn7)CC6)c5)CC4)CC3)cc2)C(=O)N1` [Example 109, 1-(4-(4-((1-(3-((4-((5-chloropyrimidin-2-yl)amino)piperidin-1-yl)sulfonyl)phenyl)-piperidin-4-yl)methyl)piperazin-1-yl)phenyl) dihydropyrimidine-2,4(1H,3H)-dione], the pIC50 was 6.30 to 7.00.

`Cn1nc(N2CCC(=O)NC2=O)c2cc(F)c(N3CCN(CC4CCN(c5cccc(S(=O)(=O)N6CCC(Nc7ncc(C(F)(F)F)cn7)CC6)c5)CC4)CC3)cc21` [Example 110, 1-(5-fluoro-1-methyl-6-(4-((1-(3-((4-((5-(trifluoromethyl)pyrimidin-2-yl)amino)-piperidin-1 - yl)sulfonyl)phenyl)piperidin-4-yl)methyl)piperazin-1-yl)-1H-indazol-3-yl)dihydropyrimidine-2,4(1H,3H)-dione]: the pIC50 was 6.30 to 7.00.

Take `Cn1nc(N2CCC(=O)NC2=O)c2cc(F)c(N3CCN(CC4CCN(c5cccc(S(=O)(=O)N6CCC(Nc7ncc(Cl)cn7)CC6)c5)CC4)CC3)cc21` [Example 111, 1-(6-(4-((1-(3-((4-((5-chloropyrimidin-2-yl)amino)piperidin-1-yl)sulfonyl)phenyl)-piperidin-4-yl)methyl)piperazin-1-yl)-5-fluoro-1-methyl-1H-indazol-3-yl)dihydropyrimidine-2,4(1H,3H)-dione]: the pIC50 is 5.60 to 6.30.

As to `Cn1nc(N2CCC(=O)NC2=O)c2ccc(C3CCN(CC4CCN(c5cccc(S(=O)(=O)N6CCC(Nc7ncc(OC(F)F)cn7)CC6)c5)CC4)CC3)cc21` [Example 112, 1-(6-(1-((1-(3-((4-((5-(difluoromethoxy)-pyrimidin-2-yl)amino)piperidin-1-yl)sulfonyl)phenyl)piperidin-4-yl)methyl)piperidin-4-yl)-1-methyl-1H-indazol-3-yl)dihydropyrimidine-2,4(1H,3H)-dione], the pIC50 was 7.00 to 9.00.

The values above are taken from US20260167623A1 (NIKANG THERAPEUTICS, INC., priority 2022, published 2026).
